Results on 13 compounds are retold here after ChEMBL document CHEMBL5113380, “Functionalized quinoxalinones as privileged structures with broad-ranging pharmacological activities” (Eur J Med Chem, 2022).

Structures are written as SMILES. Converted amounts (≈) assume the structure as drawn. Some results are limits rather than exact numbers.

One data set relates to Rattus norvegicus. Put plainly: Ulcerogenic activity in male albino rat assessed as ulceration at 25 mg/kg, po. It is filed as functional.
The subject of another data set is RAW264.7. Put plainly: Anti-inflammatory activity in mouse RAW264.7 cells assessed as inhibition of LPS-induced NO production at 10 uM after 24 hrs by Griess reagent-based assay. It is filed as functional. Further details: scale not given: the % may be the effect or the level left.
The subject of another data set is Mus musculus. Put plainly: Antiinflammatory activity against mouse assessed as reduction in carragenan-induced paw edema at 25 mg/kg,po treated 1 hr prior to carrageenan challenge. It is filed as functional. Further details: scale not given: the % may be the effect or the level left.
Data set [1] in a line: Inhibition of DC-SIGN (unknown origin).
Data set [2] relates to Candida. Put plainly: Antifungal activity against Candida species isolate 2. It is filed as functional.
For data set [3], the system named is Candida. Put plainly: Antifungal activity against Candida species isolate 1. The data set is classed as functional.
A further data set concerns Escherichia coli. Put plainly: Antibacterial activity against Escherichia coli. The data set is classed as functional.
For another data set, the system named is Candida albicans. Put plainly: Antifungal activity against Candida albicans. It is filed as functional.
A further data set deals with Candida parapsilosis. Put plainly: Antifungal activity against Candida parapsilosis. It is filed as functional. As to conditions: Lodderomyces parapsilosis.
Data set [4] concerns Candida. Put plainly: Antifungal activity against Candida species isolate 3. It is filed as functional.
In another data set the test system is Candida tropicalis. Put plainly: Antifungal activity against Candida tropicalis. The data set is classed as functional.
The test system of data set [5] is Mycobacterium tuberculosis. Put plainly: Antimycobacterial activity against Mycobacterium tuberculosis at […]. The data set is classed as functional. As to conditions: dose 12.5 µg/ml.
The subject of a further data set is Pichia kudriavzevii. Put plainly: Antifungal activity against Candida krusei. The data set is classed as functional.
For another data set, the system named is Nakaseomyces glabratus. Put plainly: Antifungal activity against Candida glabrata. The data set is classed as functional.
Data set [6] is described as follows: Binding affinity to benzodiazepine receptor (unknown origin). Further details: species or system Homo sapiens.
Data set [7] is described as follows: Inhibition of lipid peroxidation at 10 uM by measuring MDA concentration. It is filed as functional. Further details: scale not given: the % may be the effect or the level left.
Data set [8] in a line: Antioxidant activity assessed as DPPH radical scavenging activity at 50 uM. The data set is classed as functional.
A short description of data set [9]: Inhibition of ALR1 (unknown origin) relative to control. Further details: concentration or dose not given beside the values. The note with it: Homo sapiens; concentration not given here.
The nature of data set [10]: Antioxidant activity assessed as DPPH radical scavenging activity at 100 uM. It is filed as functional. (Loss of DPPH colour is used to gauge radical scavenging.)
Data set [11] can be described thus: Inhibition of lipid peroxidation at 100 uM by measuring MDA concentration. The data set is classed as functional. Further details: Activity: scale not given: the % may be the effect or the level left.
Data set [12] in a line: Inhibition of ALR2 (unknown origin). Further details: species or system Homo sapiens.
The test system of data set [13] is Human immunodeficiency virus 1. Put plainly: Antiviral activity against HIV1. The data set is classed as functional, organism-based.
Data set [14] addresses 72 kDa type IV collagenase (Homo sapiens, UniProt P08253). Put plainly: Inhibition of MMP-2 (unknown origin) using succinylated gelatin as substrate incubated for 30 mins and measured by gelatin zymography method.
The target of data set [15] is Amine oxidase [flavin-containing] B (Homo sapiens, UniProt P27338). Put plainly: Inhibition of MAO-B (unknown origin).
Chain of Amine oxidase [flavin-containing] B (P27338 whole entry): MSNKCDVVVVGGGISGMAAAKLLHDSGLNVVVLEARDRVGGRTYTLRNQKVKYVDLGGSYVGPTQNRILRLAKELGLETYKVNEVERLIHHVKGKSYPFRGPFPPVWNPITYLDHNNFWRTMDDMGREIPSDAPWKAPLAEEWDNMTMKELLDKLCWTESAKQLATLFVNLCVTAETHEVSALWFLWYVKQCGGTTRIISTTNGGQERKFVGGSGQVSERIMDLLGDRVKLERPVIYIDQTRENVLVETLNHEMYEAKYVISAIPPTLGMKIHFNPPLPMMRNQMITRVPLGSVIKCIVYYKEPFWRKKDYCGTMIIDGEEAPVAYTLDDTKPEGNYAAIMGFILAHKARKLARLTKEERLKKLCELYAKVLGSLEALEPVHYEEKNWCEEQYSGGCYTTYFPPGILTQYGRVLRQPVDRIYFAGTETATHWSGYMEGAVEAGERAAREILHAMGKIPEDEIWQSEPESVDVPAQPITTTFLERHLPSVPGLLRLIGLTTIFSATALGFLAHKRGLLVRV
Data set [16] concerns the target Amine oxidase [flavin-containing] A (Homo sapiens, UniProt P21397). Put plainly: Inhibition of MAO-A (unknown origin).
Data set [17] can be described thus: Drug metabolism in human liver microsomes. It is filed as ADME, Microsome. As to conditions: read-out: Drug metabolism. On the technique in general: Liver microsomes are vesicles of endoplasmic reticulum, rich in cytochrome P450 enzymes.
Data set [18] deals with Human immunodeficiency virus type 1 reverse transcriptase (Human immunodeficiency virus 1) (UniProt Q72547). Put plainly: (§1) Inhibition of HIV1 reverse transcriptase.
For data set [19], the target named is Human immunodeficiency virus type 1 reverse transcriptase (Human immunodeficiency virus 1, UniProt Q72547). The data set is described as §1.
A further data set deals with NCI-H460. Put plainly: Antiproliferative activity against human NCI-H460 cells after 72 hrs by MTT assay. It is filed as functional, cell-based. As to conditions: NCI-H460, 72 h.
The test system of a further data set is L02. Put plainly: Antiproliferative activity against human HL7702 cells after 72 hrs by MTT assay. The data set is classed as functional, cell-based. As to conditions: L02, 72 h. In general terms: Formazan colour is commonly taken as a measure of viable cells.
The subject of the next data set is B16-F10. Put plainly: Antiproliferative activity against mouse B16-F10 cells after 72 hrs by MTT assay. The data set is classed as functional, cell-based. As to conditions: B16-F10, 72 h.
In data set [20] the target is Platelet-derived growth factor receptor beta (Homo sapiens, UniProt P09619). Put plainly: Inhibition of PDGFR-beta (unknown origin).
Chain of Platelet-derived growth factor receptor beta (P09619 whole entry): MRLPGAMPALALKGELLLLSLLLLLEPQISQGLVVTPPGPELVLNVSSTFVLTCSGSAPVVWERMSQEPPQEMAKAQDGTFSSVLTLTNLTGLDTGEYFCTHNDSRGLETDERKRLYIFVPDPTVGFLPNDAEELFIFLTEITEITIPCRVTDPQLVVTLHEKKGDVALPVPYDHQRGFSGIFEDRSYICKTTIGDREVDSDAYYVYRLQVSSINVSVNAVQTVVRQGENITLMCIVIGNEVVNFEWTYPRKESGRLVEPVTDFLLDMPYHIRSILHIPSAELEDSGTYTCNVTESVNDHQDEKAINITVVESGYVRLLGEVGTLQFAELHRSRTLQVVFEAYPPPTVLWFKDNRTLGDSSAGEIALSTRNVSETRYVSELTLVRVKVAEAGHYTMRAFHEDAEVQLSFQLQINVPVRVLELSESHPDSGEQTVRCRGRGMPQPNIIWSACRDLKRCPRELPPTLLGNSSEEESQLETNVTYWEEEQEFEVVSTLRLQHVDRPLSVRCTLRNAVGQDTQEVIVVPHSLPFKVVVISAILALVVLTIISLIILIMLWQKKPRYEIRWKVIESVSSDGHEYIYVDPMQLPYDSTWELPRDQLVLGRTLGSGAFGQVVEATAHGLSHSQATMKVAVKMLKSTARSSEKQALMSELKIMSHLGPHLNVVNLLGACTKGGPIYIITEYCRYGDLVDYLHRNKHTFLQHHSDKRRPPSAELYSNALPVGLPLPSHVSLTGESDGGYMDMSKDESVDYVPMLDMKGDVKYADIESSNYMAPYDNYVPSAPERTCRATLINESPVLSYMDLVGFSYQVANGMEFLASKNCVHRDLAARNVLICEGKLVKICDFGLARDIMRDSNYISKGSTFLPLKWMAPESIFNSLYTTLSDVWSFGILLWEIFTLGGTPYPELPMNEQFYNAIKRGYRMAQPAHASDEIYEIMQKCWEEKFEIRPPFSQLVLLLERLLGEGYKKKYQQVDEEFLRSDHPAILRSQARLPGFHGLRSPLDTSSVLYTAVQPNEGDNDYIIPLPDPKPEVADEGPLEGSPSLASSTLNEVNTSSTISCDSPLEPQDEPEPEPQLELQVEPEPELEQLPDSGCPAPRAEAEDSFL
A further data set deals with HCT-116. Put plainly: Antiproliferative activity against human HCT-116 cells after 72 hrs by MTT assay. The data set is classed as functional, cell-based. As to conditions: HCT-116, 72 h.
For another data set, the system named is HeLa 229. Put plainly: Antiproliferative activity against human HeLa 229 cells after 72 hrs by MTT assay. The data set is classed as functional, cell-based. The note with it: HeLa 229, 72 h.
For data set [21], the target named is Fibroblast growth factor receptor 1 (Homo sapiens, UniProt P11362). Put plainly: Inhibition of FGFR1 (unknown origin) using ULight-JAK-1 (Tyr1023) peptide as substrate incubated for 90 mins and measured after 1 hr by LANCE Ultra TR-FRET assay.
Chain of Fibroblast growth factor receptor 1 (P11362 whole entry): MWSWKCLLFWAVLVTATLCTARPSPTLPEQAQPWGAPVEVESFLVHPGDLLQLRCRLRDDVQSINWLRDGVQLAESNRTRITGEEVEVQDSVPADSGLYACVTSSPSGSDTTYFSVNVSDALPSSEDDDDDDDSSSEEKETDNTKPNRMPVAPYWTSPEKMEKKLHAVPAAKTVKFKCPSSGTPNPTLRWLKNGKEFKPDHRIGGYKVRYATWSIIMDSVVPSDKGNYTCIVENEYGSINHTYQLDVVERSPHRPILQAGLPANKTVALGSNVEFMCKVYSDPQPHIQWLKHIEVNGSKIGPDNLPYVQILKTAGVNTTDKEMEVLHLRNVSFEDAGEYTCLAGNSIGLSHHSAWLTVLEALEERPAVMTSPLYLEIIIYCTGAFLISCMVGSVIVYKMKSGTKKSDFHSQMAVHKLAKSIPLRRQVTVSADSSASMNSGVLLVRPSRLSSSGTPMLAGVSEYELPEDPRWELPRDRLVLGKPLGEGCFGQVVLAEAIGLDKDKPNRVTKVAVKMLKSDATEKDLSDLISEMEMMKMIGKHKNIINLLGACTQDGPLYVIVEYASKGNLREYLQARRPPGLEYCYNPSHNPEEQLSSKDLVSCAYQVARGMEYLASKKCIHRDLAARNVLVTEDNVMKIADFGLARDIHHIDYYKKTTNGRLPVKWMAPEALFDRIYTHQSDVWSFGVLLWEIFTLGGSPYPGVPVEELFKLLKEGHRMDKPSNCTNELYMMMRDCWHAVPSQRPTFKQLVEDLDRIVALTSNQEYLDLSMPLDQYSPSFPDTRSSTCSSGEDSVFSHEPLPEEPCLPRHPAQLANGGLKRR
A short description of data set [22]: Partial agonist activity at GABAA/benzodiazepine receptor complex (unknown origin) measured by [35S]TBPS based functional assay. Further details: species or system Homo sapiens.
Data set [23] can be described thus: Displacement of [3H]flunitrazepam from GABAA/benzodiazepine receptor complex (unknown origin). Further details: species or system Homo sapiens.
Data set [24] concerns HepG2. Put plainly: Induction of apoptosis in human HepG2 cells assessed as fold increase in caspase-9 protein level. It is filed as functional.
Data set [25] relates to HepG2. Put plainly: Antiproliferative activity against human HepG2 cells. The data set is classed as functional, cell-based.
For a further data set, the system named is MCF7. Put plainly: Antiproliferative activity against human MCF7 cells. The data set is classed as functional, cell-based.
Data set [26] deals with Vascular endothelial growth factor receptor 2 (Homo sapiens, UniProt P35968).
Chain of Vascular endothelial growth factor receptor 2 (P35968 whole entry): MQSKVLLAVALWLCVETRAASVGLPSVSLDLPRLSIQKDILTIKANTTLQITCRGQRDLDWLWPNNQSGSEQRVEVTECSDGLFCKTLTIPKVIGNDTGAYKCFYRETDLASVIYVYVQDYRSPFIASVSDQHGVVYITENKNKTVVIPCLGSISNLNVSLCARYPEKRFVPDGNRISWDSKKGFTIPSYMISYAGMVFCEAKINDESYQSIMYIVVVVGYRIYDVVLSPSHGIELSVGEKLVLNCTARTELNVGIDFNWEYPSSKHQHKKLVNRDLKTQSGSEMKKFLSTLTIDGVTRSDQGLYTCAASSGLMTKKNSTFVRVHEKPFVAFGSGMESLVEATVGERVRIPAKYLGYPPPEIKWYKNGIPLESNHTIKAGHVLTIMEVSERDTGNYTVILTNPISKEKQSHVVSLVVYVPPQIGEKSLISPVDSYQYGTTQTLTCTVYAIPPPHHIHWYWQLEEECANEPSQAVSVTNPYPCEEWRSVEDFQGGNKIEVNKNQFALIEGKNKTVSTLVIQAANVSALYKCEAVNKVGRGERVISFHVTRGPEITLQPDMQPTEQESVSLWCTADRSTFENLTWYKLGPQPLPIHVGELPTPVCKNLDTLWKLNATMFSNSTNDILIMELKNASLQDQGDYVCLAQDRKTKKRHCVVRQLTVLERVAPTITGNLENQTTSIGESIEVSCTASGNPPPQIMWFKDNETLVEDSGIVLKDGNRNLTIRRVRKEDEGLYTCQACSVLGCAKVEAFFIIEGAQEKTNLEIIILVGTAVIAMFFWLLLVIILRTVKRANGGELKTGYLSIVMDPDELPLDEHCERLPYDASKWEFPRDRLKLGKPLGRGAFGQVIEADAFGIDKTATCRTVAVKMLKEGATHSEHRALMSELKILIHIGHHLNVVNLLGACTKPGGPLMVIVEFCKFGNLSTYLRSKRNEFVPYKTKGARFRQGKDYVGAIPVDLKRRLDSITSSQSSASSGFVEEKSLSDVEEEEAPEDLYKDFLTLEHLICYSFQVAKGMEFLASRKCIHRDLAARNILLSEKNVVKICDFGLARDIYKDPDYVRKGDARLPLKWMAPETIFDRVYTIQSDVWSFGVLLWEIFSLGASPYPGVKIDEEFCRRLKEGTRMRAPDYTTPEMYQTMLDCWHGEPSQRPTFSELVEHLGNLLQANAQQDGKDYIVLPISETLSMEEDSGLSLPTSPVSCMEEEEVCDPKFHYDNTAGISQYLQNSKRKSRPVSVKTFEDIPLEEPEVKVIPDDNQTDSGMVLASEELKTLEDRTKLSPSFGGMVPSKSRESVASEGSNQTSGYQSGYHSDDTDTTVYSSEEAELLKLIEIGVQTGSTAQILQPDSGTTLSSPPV
For data set [27], the system named is HepG2. Put plainly: Cell cycle arrest in human HepG2 cells assessed as fold increase in accumulation at G2/M phase. It is filed as functional.
Data set [28] concerns HepG2. Put plainly: Induction of apoptosis in human HepG2 cells assessed as fold increase in caspase-3 protein level. The data set is classed as functional.
The test system of data set [29] is HepG2. Put plainly: Induction of apoptosis in human HepG2 cells assessed as fold increase in BAX/BCL-2 protein level. It is filed as functional.

As usually defined, the IC50 is the point on the concentration scale where inhibition reaches its midpoint. For orientation: MIC means the lowest concentration found to suppress growth. The Ki is a measure of affinity in units of concentration, obtained from inhibition or displacement. By inhibition is commonly meant the change of the read-out against control, counted positive when it falls. What is called EC50 is the midpoint of the concentration-response curve. In general, IC90 refers to the concentration at which the effect reaches the 90% level.

Chain of Amine oxidase [flavin-containing] A (P21397 whole entry): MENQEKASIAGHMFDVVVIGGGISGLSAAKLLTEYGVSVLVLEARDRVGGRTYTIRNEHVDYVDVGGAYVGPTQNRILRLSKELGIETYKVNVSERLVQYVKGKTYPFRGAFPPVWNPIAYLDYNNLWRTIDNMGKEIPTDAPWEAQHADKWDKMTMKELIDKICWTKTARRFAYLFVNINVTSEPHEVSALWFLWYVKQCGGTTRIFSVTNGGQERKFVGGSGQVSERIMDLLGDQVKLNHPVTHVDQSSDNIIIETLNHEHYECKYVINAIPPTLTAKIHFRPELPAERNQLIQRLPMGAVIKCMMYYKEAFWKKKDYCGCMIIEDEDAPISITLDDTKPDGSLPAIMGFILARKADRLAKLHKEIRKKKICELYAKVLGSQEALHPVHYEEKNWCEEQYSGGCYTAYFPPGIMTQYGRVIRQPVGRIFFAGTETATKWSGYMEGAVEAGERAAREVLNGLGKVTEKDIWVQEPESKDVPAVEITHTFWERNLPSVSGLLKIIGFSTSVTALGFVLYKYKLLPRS
Chain of 72 kDa type IV collagenase (P08253 whole entry): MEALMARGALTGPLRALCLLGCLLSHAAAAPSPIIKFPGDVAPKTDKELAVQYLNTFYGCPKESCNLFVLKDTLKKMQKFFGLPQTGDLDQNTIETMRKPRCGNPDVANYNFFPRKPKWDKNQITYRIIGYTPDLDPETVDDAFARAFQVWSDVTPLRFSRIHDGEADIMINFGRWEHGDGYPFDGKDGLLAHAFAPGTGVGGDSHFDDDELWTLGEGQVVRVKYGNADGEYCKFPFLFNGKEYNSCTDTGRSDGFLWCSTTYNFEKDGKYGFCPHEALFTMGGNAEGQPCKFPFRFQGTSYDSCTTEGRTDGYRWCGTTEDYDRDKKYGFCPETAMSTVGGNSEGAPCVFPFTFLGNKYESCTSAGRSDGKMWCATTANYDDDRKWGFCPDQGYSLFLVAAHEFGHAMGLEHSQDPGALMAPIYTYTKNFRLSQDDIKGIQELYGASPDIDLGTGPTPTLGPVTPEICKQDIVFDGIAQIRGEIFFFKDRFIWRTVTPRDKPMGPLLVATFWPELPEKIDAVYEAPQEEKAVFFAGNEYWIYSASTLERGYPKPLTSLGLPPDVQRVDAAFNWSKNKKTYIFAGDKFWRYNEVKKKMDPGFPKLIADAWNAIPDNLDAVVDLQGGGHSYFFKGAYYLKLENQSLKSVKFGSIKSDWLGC

Consider `Cc1cccc(Oc2nn3c(C(N)=O)nnc3c3ccccc23)c1`, for which the Activity with Rattus norvegicus was 20%; with RAW264.7, 10.31%; in the data set on Mus musculus, 42.81%.

In data set [1], `NS(=O)(=O)c1ccc(CCCC2Nc3ccc(C(=O)N4CCN(c5ccncc5)CC4)cc3NC2=O)cc1` (centres undefined) yielded an IC50 of 0.31 µM.

Turning to `O=c1[nH]c2cc([N+](=O)[O-])ccc2nc1CBr`, the MIC against Candida [2] stood at 31.2 µg/mL (≈ 110 µM); in the data set on Candida [3], 15.6 µg/mL (≈ 54.9 µM); with Escherichia coli it was 125 µg/mL (≈ 440 µM); with Candida albicans, 8 µg/mL (≈ 28.2 µM); against Candida parapsilosis, 15.6 µg/mL (≈ 54.9 µM); against Candida [4], 15.6 µg/mL (≈ 54.9 µM). Further, the MIC against Candida tropicalis stood at 31.2 µg/mL (≈ 110 µM); with Pichia kudriavzevii, 62.5 µg/mL (≈ 220 µM); with Nakaseomyces glabratus it was 15.6 µg/mL (≈ 54.9 µM). Moreover, the Activity in data set [5] stood at 15%.

Compound `Oc1nc2ccc(Cl)cc2n2nc(-c3ccccc3F)nc12` yielded a Ki in [6] of 0.0029 µM.

On to `O=C(O)Cn1c(=O)c(Oc2cc(O)cc(O)c2)nc2ccc(Cl)cc21`, for which the Activity in data set [7] came to 26.6%; in data set [8], 83.7%; in [10], 91.3%; in data set [11], 55.3%. Further, the inhibition in data set [9] was determined as 38.2%. The IC50 in [12] worked out at 0.566 µM.

`O=C1CN(S(=O)(=O)c2c(Cl)cccc2Cl)c2cc(Cl)ccc2N1` displayed an EC50 in [13] of 1.09 µM.

On to `Cc1ccc(NC(=O)C(Cc2ccccc2)NC(=O)Cn2c(=O)c(C)nc3ccccc32)cc1` (centres undefined), for which the IC50 in [14] amounted to 10.5 µM.

On to `C/C(=N\NC(=O)Cn1c(=O)c(Cc2ccccc2)nc2ccccc21)c1ccc(O)cc1`, for which the values for the 50% inhibitory concentration (IC50) in [15] and in [16] were 980 µM and 0.0016 µM, respectively.

Regarding `O=c1c(-c2cccc([N+](=O)[O-])c2)nc2ccccc2n1Cc1ccccc1`, the metabolised in data set [17] is under 40%.

Take `CCOC(=O)N1c2ccccc2NC(=O)[C@]1(C#CC1CC1)C(F)(F)F`: in data set [18], it took 0.0048 µM to reach the 90% level (IC90). It took 0.045 µM to reach half-maximal inhibition in data set [19] (IC50).

Turning to `Cn1c(=O)c(/C=C/c2ccccn2)nc2ccccc21`, the IC50 in the data set on NCI-H460 is 5.78 µM; in the data set on L02 it was 53.7 µM; with B16-F10, 6.64 µM; in [20], over 89.5 µM; in the data set on HCT-116 it was 7.63 µM; with HeLa 229 it was 14.6 µM. For the same compound, 26.7 µM corresponded to half-maximal inhibition in data set [21] (IC50).

`CC(C)n1c(=O)c2c(-c3ccc(F)cc3)ncn2c2cccc(Cl)c21` returned a half-maximal effective concentration (EC50) in [22] of 0.00204 µM. In data set [23], affinity was put at a Ki of 0.0146 µM.

Take `O=C(Cn1c(=O)c2nncn2c2ccccc21)Nc1ccc(C(=O)Nc2ccc(Cl)cc2)cc1`: the “fold change (FC)” value with HepG2 [24] stood at 1.82; in the data set with HepG2 [27], 2.14; with HepG2 [28], 1.96; in the data set with HepG2 [29], 3.81. The figures for the IC50 (in the data set with HepG2 [25]; with MCF7; in [26]) were 4.1 µM, 7.2 µM and 0.0034 µM, respectively.
